Results taken from ChEMBL document CHEMBL1127094, “Competitive NMDA receptor antagonists; (R)-4-Oxo-5-phosphononorvaline structure-activity relationships” (Bioorg Med Chem Lett, 1993).

Target: Glutamate NMDA receptor
Experiment: Tested for the binding potency against NMDA site of the glutamate receptor complex using rat brain cortical membranes in a competitive binding assay with [3H]CPP as radioligand
Assay type: cell membranes, Membrane

SMILES: N[C@H](C/C(CP(=O)(O)O)=N/OCc1ccccc1)C(=O)O
- IC50: 0.5 µM

SMILES: CC(C(=O)CP(=O)(O)O)C(N)C(=O)O (centres undefined)
- IC50: 7 µM

SMILES: N[C@H](CC(=O)CP(=O)(O)O)C(=O)O
- IC50: 0.11 µM

SMILES: CC(N)(CC(=O)CP(=O)(O)O)C(=O)O (centres undefined)
- IC50: 20 µM

SMILES: N[C@H](C/C(CP(=O)(O)O)=N/O)C(=O)O
- IC50: 0.2 µM

SMILES: CC(C(=O)C[C@@H](N)C(=O)O)P(=O)(O)O (some centres undefined)
- IC50: 1.8 µM

SMILES: COP(=O)(O)CC(=O)CC(N)C(=O)O (centres undefined)
- IC50: 5 µM

SMILES: COC(=O)[C@H](N)CC(=O)CP(=O)(O)O
- IC50: 1.7 µM

SMILES: CO/N=C(/C[C@@H](N)C(=O)O)CP(=O)(O)O
- IC50: 0.6 µM
